Molecules are shown by their SMILES. Counter-ions that a name gives are not always drawn.

For experiment [1], the system named is THP-1. Put plainly: THP-1 IC50 assay. It is filed as cell-based. The note with it: Homo sapiens; THP-1 cells.
In experiment [2] the test system is IL-1β release upon NLRP3 activation in peripheral blood mononuclear cells (PBMC). Briefly: PBMC IC50 Determination Assay. It is filed as cell-based. The note with it: Homo sapiens; inhibition of IL-1β release; LPS-primed PBMC stimulated with ATP or nigericin. As to the method:
The compounds of the present disclosure were tested for their inhibitory activity against IL-1β release upon NLRP3 activation in peripheral blood mononuclear cells (PBMC).
Protocol A. PBMC were isolated from buffy coats by density gradient centrifugation on Histopaque-1077 (Sigma, cat no. 10771). Isolated cells were seeded into the wells of a 96-well plate and incubated for 3 h with lipopolysaccharide (LPS). Following medium exchange, the compounds of the present disclosure were added (a single compound per well) and the cells were incubated for 30 min. Next, the cells were stimulated either with ATP (5 mM) or nigericin (10 μM) for 1 h and the cell culture media from the wells were collected for further analysis.
The release of IL-1β into the media was determined by a quantitative detection of IL-1β in the media using an IL-1β enzyme-linked immunosorbent assay (ELISA) Ready-SET-Go!, eBioscience cat. No. 88-7261-88. Briefly, in a first step, high affinity binding plates (Corning, Costar 9018 or NUNC Maxisorp Cat No. 44-2404) were coated overnight at 4° C. with specific capture antibody included in the kit (anti-human IL-1β ref. 14-7018-68). Subsequently, plates were blocked with blocking buffer for 1 h at room temperature (rt) and after washing with a buffer (PBS with 0.05% Tween-20) incubated with protein standard and culture media. After 2 h of incubation at rt, plates were washed and incubated with biotinylated detection antibody included in the kit (anti-human IL-1β Biotin ref. 33-7110-68) for 1 h at rt. Plates were washed and incubated with HRP-streptavidin for 30 min at rt and washed again. The signal was developed after addition of 3,3′,5,5′-tetramethylbenzidine-peroxidase (TMB) until colour appeared and the reaction was stopped by 2 M H2SO4. A microplate spectrophotometer (BioTek) was used to detect signals with 450 nm. The detection range of IL-1β ELISA was […].
Protocol B. PBMC were isolated from buffy coats by density gradient centrifugation on Histopaque-1077 (Sigma, cat no. 10771). Isolated cells were seeded into the wells (280,000 cells/well) of a 96-well plate and incubated for 3 h with lipopolysaccharide (LPS, 1 μg/mL diluted 1000× from a 1 mg/mL stock solution). The compounds of the present disclosure were added (a single compound per well) and the cells were incubated for 30 min. Next, the cells were stimulated with ATP (5 mM final concentration diluted 20× from a 100 mM stock solution) for 1 h and the cell culture media from the wells were collected for further analysis.
The release of IL-1β into the media was determined by quantitative detection of IL-1β in the media using HTRF®, CisBio cat. No. 62HIL1BPEH. Briefly, cell culture supernatant were dispensed directly into the assay plate containing antibodies labelled with the HTRF® donor and acceptor. A microplate spectrophotometer (BMG) was used to detect signals at 655 nm and 620 nm. The detection range of IL-1β HTRF® was 39-6500 μg/mL.

Turning to `Cc1cc(C(F)(F)F)cc(O)c1-c1ccc(CNCc2ccccc2)nn1` [Compound 138], the concentration for half-maximal inhibition (IC50) fell in the range of 1000 to 3000 nM in experiment [1] and 500 to 1000 nM in experiment [2].

Regarding `Cc1cc(Cl)cc(O)c1-c1ccc(CO[C@@H]2CCOC2)nn1` [Compound 63, (R)-5-Chloro-3-methyl-2-(6-(((tetrahydrofuran-3-yl)oxy)methyl)pyridazin-3-yl)phenol], the IC50 is 500 to 1000 nM in experiment [1] and under 500 nM in experiment [2].

For `COCCNCc1ccc(-c2c(C)cc(C(F)(F)F)cc2O)nn1` [Compound 115], the IC50 in experiment [1] and in experiment [2] was 1000 to 3000 nM throughout.

With `Cc1cc(Cl)cc(O)c1-c1ccc(CN(C)[C@H]2CC(=O)N(C)C2)nn1` [Compound 91, (4S)-4-({[6-(4-Chloro-2-hydroxy-6-methylphenyl)pyridazin-3-yl]methyl}(methyl)amino)-1-methylpyrrolidin-2-one], the IC50 in experiment [1] and in experiment [2] was 1000 to 3000 nM throughout.

In the case of `COCC(=O)NCc1ccc(-c2c(C)cc(C(F)(F)F)cc2O)nn1` [Compound 8, N-((6-(2-Hydroxy-6-methyl-4-(trifluoromethyl)phenyl)pyridazin-3-yl)methyl)-2-methoxyacetamide], the IC50 lay in the range of 3000 to 10000 nM in experiment [1] and 1000 to 3000 nM in experiment [2].

Turning to `Cc1cc(C(F)(F)F)cc(O)c1-c1ccc(CNCC2COC2)nn1` [Compound 104], the IC50 in experiment [1] and in experiment [2] was 1000 to 3000 nM each time.

Regarding `Cc1cc(C(F)(F)F)cc(O)c1-c1ccc(CN[C@H]2CCOC2)nn1` [Compound 33, (S)-3-methyl-2-(6-(((tetrahydrofuran-3-yl)amino)methyl)pyridazin-3-yl)-5-(trifluoromethyl)phenol], the IC50 in experiment [1] and in experiment [2] was under 500 nM in each case.

As to `Cc1cc(C(F)(F)F)cc(O)c1-c1ccc(CNC2CN3CCC2CC3)nn1` (stereo not drawn) [Compound 154], the IC50 in experiment [1] and in experiment [2] was at least 10000 nM throughout.

Consider `Cc1cc(C(F)(F)F)cc(O)c1-c1ccc(CNC2CCSCC2)nn1` [Compound 136], for which the IC50 in experiment [1] and in experiment [2] was 500 to 1000 nM each time.

In the case of `Cc1cc(C(F)(F)F)cc(O)c1-c1ccc(CNCC2CC2)nn1` [Compound 97], the IC50 lay within 1000 to 3000 nM in experiment [1] and 500 to 1000 nM in experiment [2].

Consider `Cc1cc(C(F)(F)F)cc(O)c1-c1ccc(CNCC2CCN(C)C2)nn1` (stereo not drawn) [Compound 77, 3-Methyl-2-[6-({[(1-methylpyrrolidin-3-yl)methyl]amino}methyl)pyridazin-3-yl]-5-(trifluoromethyl)phenol dihydrochloride], for which the IC50 in experiment [1] and in experiment [2] was 1000 to 3000 nM in each case.

As to `Cc1cc(C(F)(F)F)cc(O)c1-c1ccc(CN2CCCC2=O)nn1` [Compound 134], the IC50 in experiment [1] and in experiment [2] was under 500 nM each time.

In the case of `CC(=O)N1CC[C@H](NCc2ccc(-c3c(C)cc(Cl)cc3O)nn2)C1` [Compound 73, (S)-1-(3-(((6-(4-Chloro-2-hydroxy-6-methylphenyl)pyridazin-3-yl)methyl)amino)pyrrolidin-1-yl)ethan-1-one], the half-maximal inhibitory concentration (IC50) in experiment [1] and in experiment [2] was under 500 nM in each case.

As to `Cc1cc(Cl)cc(O)c1-c1ccc(COC2COC2)nn1` [Compound 65, 5-Chloro-3-methyl-2-(6-((oxetan-3-yloxy)methyl)pyridazin-3-yl)phenol], the IC50 in experiment [1] is 500 to 1000 nM; in experiment [2] it was under 500 nM.

Consider `Cc1cc(C(F)(F)F)cc(O)c1-c1ccc(CN2CCOCC2)nn1` [Compound 130], for which the IC50 in experiment [1] and in experiment [2] was 500 to 1000 nM in each case.

As to `Cc1cc(Cl)cc(O)c1-c1ccc(CN2CCCC2=S)nn1` [Compound 89, 1-{[6-(4-Chloro-2-hydroxy-6-methylphenyl)pyridazin-3-yl]methyl}pyrrolidine-2-thione], the IC50 in experiment [1] and in experiment [2] was under 500 nM in each case.

Turning to `Cc1cc(F)cc(O)c1-c1ccc(CNC2CCOCC2)nn1` [Compound 52, 5-Fluoro-3-methyl-2-(6-(((tetrahydro-2H-pyran-4-yl)amino)methyl)pyridazin-3-yl)phenol], the IC50 in experiment [1] and in experiment [2] was 3000 to 10000 nM throughout.

Consider `Cc1cc(C(F)(F)F)cc(O)c1-c1ccc(CN2CC[C@H](F)C2)nn1` [Compound 35, (S)-2-(6-((3-Fluoropyrrolidin-1-yl)methyl)pyridazin-3-yl)-3-methyl-5-(trifluoromethyl)phenol], for which the IC50 in experiment [1] and in experiment [2] was 500 to 1000 nM each time.

On to `Cc1cc(C(F)(F)F)cc(O)c1-c1ccc(CN[C@H]2CC[C@](C)(O)CC2)nn1` [Compound 152], for which the IC50 in experiment [1] and in experiment [2] was 1000 to 3000 nM each time.

As to `Cc1cc(C(F)(F)F)cc(O)c1-c1ccc(CN2C(=N)N(C)CC2=O)nn1` [Compound 23], the IC50 in experiment [1] and in experiment [2] was 3000 to 10000 nM throughout.

In the case of `Oc1cc(C(F)(F)F)cc(F)c1-c1ccc(CNC2CCOCC2)nn1` [Compound 42, 3-Fluoro-2-(6-(((tetrahydro-2H-pyran-4-yl)amino)methyl)pyridazin-3-yl)-5-(trifluoromethyl)phenol], the 50% inhibitory concentration (IC50) in experiment [1] and in experiment [2] was 3000 to 10000 nM in each case.

In the case of `Cc1cc(C(F)(F)F)cc(O)c1-c1ccc(CNCC(F)(F)F)nn1` [Compound 95], the IC50 in experiment [1] and in experiment [2] was under 500 nM in each case.

Take `Cc1cc(Br)cc(O)c1-c1ccc(CNC2CCOCC2)nn1` [Compound 29, 5-Bromo-3-methyl-2-(6-(((tetrahydro-2H-pyran-4-yl)amino)methyl)pyridazin-3-yl)phenol]: the IC50 in experiment [1] and in experiment [2] was under 500 nM each time.

On to `Cc1c(C(F)(F)F)ccc(-c2ccc(CNC3CCOCC3)nn2)c1O` [Compound 9, 2-Methyl-6-(6-(((tetrahydro-2H-pyran-4-yl)amino)methyl)pyridazin-3-yl)-3-(trifluoromethyl)phenol], for which the IC50 in experiment [1] and in experiment [2] was at least 10000 nM each time.

For the molecule `Cc1cc(C(F)(F)F)cc(O)c1-c1ccc(CNC2CC3CCOC32)nn1` (stereo not drawn) [Compound 4, 2-(6-(((2-Oxabicyclo[3.2.0]heptan-7-yl)amino)methyl)pyridazin-3-yl)-3-methyl-5-(trifluoromethyl)phenol], the IC50 in experiment [1] and in experiment [2] was 1000 to 3000 nM throughout.

`Cc1cc(Cl)cc(O)c1-c1ccc(CN[C@@H]2CCOC2)nn1` [Compound 53, (R)-5-Chloro-3-methyl-2-(6-(((tetrahydrofuran-3-yl)amino)methyl)pyridazin-3-yl)phenol]: the concentration for half-maximal inhibition (IC50) in experiment [1] and in experiment [2] was under 500 nM each time.

Take `Cc1cc(C(F)(F)F)cc(O)c1-c1ccc(CNC2CCCOC2)nn1` (stereo not drawn) [Compound 102]: the half-maximal inhibitory concentration (IC50) in experiment [1] was in the range of 1000 to 3000 nM; in experiment [2], 500 to 1000 nM.

Turning to `Cc1cc(C(F)(F)F)cc(O)c1-c1ccc(CN[C@@H]2CCN(C)C(=O)C2)nn1` [Compound 37, (R)-4-(((6-(2-Hydroxy-6-methyl-4-(trifluoromethyl)phenyl)pyridazin-3-yl)methyl)amino)-1-methylpiperidin-2-one], the IC50 in experiment [1] is 1000 to 3000 nM; in experiment [2], 500 to 1000 nM.

For the molecule `Cc1cc(C(F)(F)F)cc(O)c1-c1ccc(CNc2cnccn2)nn1` [Compound 146], the IC50 in experiment [1] and in experiment [2] was 500 to 1000 nM in each case.

On to `CO[C@@H]1CCN(Cc2ccc(-c3c(C)cc(C(F)(F)F)cc3O)nn2)C1` [Compound 39, (R)-2-(6-((3-Methoxypyrrolidin-1-yl)methyl)pyridazin-3-yl)-3-methyl-5-(trifluoromethyl)phenol], for which the IC50 was in the range of 1000 to 3000 nM in experiment [1] and 500 to 1000 nM in experiment [2].

On to `Cc1cc(C(F)(F)F)cc(O)c1-c1ccc(COC2CCCNC2)nn1` (stereo not drawn) [Compound 18, 3-Methyl-2-(6-((piperidin-3-yloxy)methyl)pyridazin-3-yl)-5-(trifluoromethyl)phenol], for which the IC50 in experiment [1] lay in the range of 1000 to 3000 nM; in experiment [2] it was 500 to 1000 nM.

For the molecule `Cc1cc(C(F)(F)F)cc(O)c1-c1ccc(CNC2CCOC(C)C2)nn1` (stereo not drawn) [Compound 139], the half-maximal inhibitory concentration (IC50) was 1000 to 3000 nM in experiment [1] and 500 to 1000 nM in experiment [2].

For the molecule `Cc1cc([N+](=O)[O-])cc(O)c1-c1ccc(CNC2CCOCC2)nn1` [Compound 57, 3-Methyl-5-nitro-2-(6-(((tetrahydro-2H-pyran-4-yl)amino)methyl)pyridazin-3-yl)phenol hydrochloride], the IC50 in experiment [1] lay in the range of 3000 to 10000 nM; in experiment [2], 1000 to 3000 nM.

The record behind these values is US20250115558A1, “PYRIDAZINE DERIVATIVES AND RELATED USES” (NodThera Limited, priority 2023, published 2025).
